Test results as given in US9334267B2, “RAF inhibitor compounds” (Deciphera Pharmaceuticals, LLC, priority 2012, dated 2016).

Key:
human B-Raf V600E = molecular target: T1, human B-Raf V600E (Homo sapiens, UniProt P15056, V600E); assay: Enzymatic assay of B-Raf V600E kinase activity (Raf/MEK1 ATPase, coupled PK/LDH, A340); format: biochemical; details: read-out: Enzyme IC50, nM B-Raf V600E
T1 construct: B-RafV600E (residues 433-726 containing V600E mutation) containing an N-terminal purification tag is expressed and purified; made in house
Experimental: Test compounds are evaluated for their inhibitory activities against one or more of human wild type B-Raf, human wild type C-Raf, human B-Raf V600E, human B-Raf V600E+T529I or human B-Raf V600E+G468A. T529I is a threonine to isoleucine B-Raf gatekeeper mutation and G468A is a B-Raf secondary mutation at G1403C in exon 11. The enzymatic assays of B-Raf, C-Raf and B-Raf mutations evaluate a property of Raf and MEK1 complex, which in the presence of ATP, catalyzes an enhanced ATP hydrolysis (Rominger, et al, Arch. Biochem. Biophys. 2007, 464: 130-137; US Patent Publication No. 2006/0211073). The ADP formed is monitored by the well-known coupled PK/LDH (pyruvate kinase/lactate dehydrogenase) system in the form of NADH oxidation, which can be monitored and detected spectrophotometrically by absorbance at 340 nm (A340; for principal of the method see Schindler et al, Science, 2000, 289: 1938-1942). Raf activated MEK1 ATPase activity is a property shared by all forms of Raf proteins.
B-RafV600E (residues 433-726 containing V600E mutation) containing an N-terminal purification tag is expressed and purified essentially as described previously (Wan et al, Cell, 2004, 116, 855-867).
Test compounds are evaluated for their inhibitory activities against one or more of wild type B-Raf, wild type C-Raf, B-Raf V600E, B-Raf V600E+T529I and B-Raf V600E+G468A. T529I is a B-Raf gatekeeper mutation and G468A is a B-Raf secondary mutation. The enzymatic assays of B-Raf, C-Raf and B-Raf mutations evaluate a property of Raf and MEK1 complex, which in the presence of ATP, catalyzes an enhanced ATP hydrolysis (Rominger, et al, Arch. Biochem. Biophys. 2007, 464: 130-137). The ADP formed is monitored by the well-known coupled PK/LDH (pyruvate kinase/lactate dehydrogenase) system in the form of NADH oxidation, which can be monitored and detected by absorbance at 340 nm (A340; for principal of the method see Schindler et al, Science, 2000, 289: 1938-1942). Raf activated MEK1 ATPase activity is a property shared by all forms of Raf proteins. In the B-Raf wild type enzymatic assay, the reaction mixture contains 1.2 nM B-Raf, 30 nM MEK1, 1000 uM ATP, 3.5 units (per 100 ul) of PK, 5 units (per 100 ul) of LDH, 1 mM phosphoenol pyruvate (PEP), and 280 uM of NADH. In the C-Raf assay, the reaction mixture contains 0.6 nM C-Raf, 26 nM MEK1, 2000 uM ATP, and the same amount of PK, LDH, PEP and NADH as above. In the B-Raf V600E assay, the reaction mixture contains […] B-Raf V600E, 26 nM MEK1, 200 uM ATP and the same amount of PK, LDH, PEP and NADH as above. In the B-RafV600E+T529I assay, the reaction mixture contains 6.2 nM B-Raf V600E+T529I, 30 nM MEK1, 200 uM ATP and the same amount of PK, LDH, PEP and NADH as above. In the B-Raf V600E+G468A assay, the reaction mixture contains 3.5 nM B-Raf, 30 nM MEK1, 200 uM ATP and the same amount of PK, LDH, PEP and NADH as above. All assays are started by mixing the above mixture with test compound and monitoring at A340 continuously for approximately 5 hr. […] In the aforementioned assays, the enzyme constructs can be screened prior to or after cleavage of the N-terminal purification tag.

human wild type c-KIT = molecular target: T2, human wild type c-KIT (Homo sapiens, UniProt P10721); assay: Enzymatic assay of c-Kit kinase activity (poly E4Y phosphorylation, coupled PK/LDH); format: biochemical
T2 construct: GST (N); made in house
Excerpt: c-Kit is an important oncogene, and its overexpression and genetic mutations often occur in melanoma and gastrointestinal stromal tumor (GIST) patients. In the c-Kit enzymatic assay, the phosphorylation of poly E4Y by ATP catalyzed by human c-Kit is monitored spectrophotometrically. The ADP produced from the kinase reaction is coupled to pyruvate kinase/lactate dehydrogenase (PK/LDH) reactions where NAD is formed from pyruvate and NADH. NADH can be detected by absorbance at 340 nm, as described above for enzymatic assays of kinase activities of B-Raf, C-Raf and B-Raf mutations.
The assay reaction mixture includes 6 nM human wild type c-KIT, 1 mg/mL Poly (Glu,Tyr) (Sigma), 1 mM Phosphoenol-pyruvate, 280 μM NADH, 5 U/3.5 U (per 100 ul) Pyruvate Kinase/Lactate Dehydrogenase, 85 mM Tris, pH 7.5, 17 mM MgCl2, 0.0042% Triton® X-100, 0.005% BSA, 1% DMSO. Test compound is incubated with the reaction mixture for 0.5 hour before adding 200 μM ATP to start the reaction at 30° C.

HT-29 cells = assay: HT-29 cell proliferation assay (resazurin); format: cell-based; details: Homo sapiens, V600E mutation, read-out: Cell Proliferation Inhibition IC50, nM HT-29
Experimental: HT-29 cells (catalog #HTB-38) are obtained from the American Type Culture Collection (ATCC, Manassas, Va.). Briefly, cells are grown in McCoy's 5A supplemented with 10% characterized fetal bovine serum (Invitrogen, Carlsbad, Calif.), and 1% Penicillin/Streptomycin/L-Glutamine at 37 degrees Celsius, 5% CO2, and 95% humidity. Cells are allowed to expand until reaching 75-90% confluency at which point they are subcultured or harvested for assay use. A serial dilution of test compound is dispensed into a 384-well black clear bottom plate in triplicate. One thousand two-hundred fifty cells are added per well in 50 μL complete growth medium in the 384-well plate. Plates are incubated for 67 hours at 37 degrees Celsius, 5% CO2, and 95% humidity. At the end of the incubation period, 10 μL of a 440 μM solution of resazurin (Sigma, St. Louis, Mo.) in PBS is added to each well of the plate and plates are incubated for an additional 5 hours at 37 degrees Celsius, 5% CO2, and 95% humidity. Plates are read on a Synergy2 reader (Biotek, Winooski, Vt.) using an excitation of 540 nm and an emission of 600 nm. Data is analyzed using Prism software (Graphpad, San Diego, Calif.) to calculate IC50 values.
The A375, HT-29, and Colo-205 cells (ATCC) harbor a V600E mutation.

HCT-116 cells = assay: HCT-116 cell proliferation assay (resazurin); format: cell-based; details: Homo sapiens, K-Ras mutation B-Raf wild type, read-out: Cell Proliferation Inhibition IC50, nM HCT-116

T1 sequence (P15056 433-726 V600E): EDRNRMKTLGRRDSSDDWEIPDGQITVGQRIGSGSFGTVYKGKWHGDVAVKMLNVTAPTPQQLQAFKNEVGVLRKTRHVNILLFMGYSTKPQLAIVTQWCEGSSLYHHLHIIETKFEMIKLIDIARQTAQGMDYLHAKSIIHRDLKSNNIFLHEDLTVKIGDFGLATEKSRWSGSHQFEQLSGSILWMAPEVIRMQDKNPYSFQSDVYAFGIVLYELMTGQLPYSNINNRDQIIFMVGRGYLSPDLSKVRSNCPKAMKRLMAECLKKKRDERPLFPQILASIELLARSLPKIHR
T2 sequence (P10721 26-976): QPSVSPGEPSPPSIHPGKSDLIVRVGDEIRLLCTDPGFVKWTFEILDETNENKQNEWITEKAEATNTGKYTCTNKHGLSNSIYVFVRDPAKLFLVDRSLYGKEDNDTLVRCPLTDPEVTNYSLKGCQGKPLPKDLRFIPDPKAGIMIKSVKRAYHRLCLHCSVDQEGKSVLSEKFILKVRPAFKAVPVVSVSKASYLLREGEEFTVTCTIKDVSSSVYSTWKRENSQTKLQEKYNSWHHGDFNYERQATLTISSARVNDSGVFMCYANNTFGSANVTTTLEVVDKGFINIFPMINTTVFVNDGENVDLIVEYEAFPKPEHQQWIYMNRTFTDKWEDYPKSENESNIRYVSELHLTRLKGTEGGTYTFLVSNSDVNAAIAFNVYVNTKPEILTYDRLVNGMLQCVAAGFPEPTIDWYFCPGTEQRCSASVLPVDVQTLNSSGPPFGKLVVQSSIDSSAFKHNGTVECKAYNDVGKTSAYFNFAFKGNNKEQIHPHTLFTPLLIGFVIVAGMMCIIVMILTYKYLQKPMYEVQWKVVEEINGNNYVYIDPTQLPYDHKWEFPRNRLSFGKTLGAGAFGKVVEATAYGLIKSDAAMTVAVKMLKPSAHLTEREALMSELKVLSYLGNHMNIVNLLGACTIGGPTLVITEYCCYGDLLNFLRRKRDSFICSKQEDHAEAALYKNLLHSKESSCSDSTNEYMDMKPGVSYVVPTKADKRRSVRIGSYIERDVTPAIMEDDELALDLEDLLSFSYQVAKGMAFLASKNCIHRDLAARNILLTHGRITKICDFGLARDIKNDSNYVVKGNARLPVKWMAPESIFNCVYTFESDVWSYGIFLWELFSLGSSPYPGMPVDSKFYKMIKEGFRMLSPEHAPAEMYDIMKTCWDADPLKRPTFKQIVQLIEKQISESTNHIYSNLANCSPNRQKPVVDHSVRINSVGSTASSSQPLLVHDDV

| IC50 (human B-Raf V600E) | IC50 (human wild type c-KIT) | IC50 (HT-29 cells) | IC50 (HCT-116 cells) | SMILES |
| --- | --- | --- | --- | --- |
| < 150 nM | < 150 nM | 100 to 1000 nM | 1000 to 10000 nM | CNc1ncc2cc(-c3cc(NC(=O)NCCC(C)(C)C#N)c(F)cc3F)c(C)nc2n1 [Example 12, 1-(3-Cyano-3-methylbutyl)-3-(2,4-difluoro-5-(7-methyl-2-(methylamino)pyrido[2,3-d]pyrimidin-6-yl)phenyl)urea] |
| < 150 nM | < 150 nM | 100 to 1000 nM | 1000 to 10000 nM | CNc1ncc2cc(-c3ccc(F)c(NC(=O)NCCC(C)(C)C#N)c3)c(C)nc2n1 [Example 13, 1-(3-Cyano-3-methylbutyl)-3-(2-fluoro-5-(7-methyl-2-(methylamino)pyrido[2,3-d]pyrimidin-6-yl)phenyl)urea] |
| < 150 nM | < 150 nM | < 100 nM | 100 to 1000 nM | CNc1ncc2cc(-c3cc(NC(=O)NCCC(C)(C)OC)c(F)cc3C)c(C)nc2n1 [Example 14, 1-(2-Fluoro-4-methyl-5-(7-methyl-2-(methylamino)pyrido[2,3-d]pyrimidin-6-yl)phenyl)-3-(3-methoxy-3-methylbutyl)urea] |
| < 150 nM |  | < 100 nM | 100 to 1000 nM | CNc1ncc2cc(-c3cc(NC(=O)NC[C@H](O)C(C)(C)C)c(F)cc3C)cnc2n1 [Example 18, 1-[2-Fluoro-4-methyl-5-(2-methylaminopyrido[2,3-d]pyrimidin-6-yl)phenyl]-3-[(2R)-2-hydroxy-3,3-dimethyl-butyl]urea] |
| < 150 nM |  | 100 to 1000 nM | 1000 to 10000 nM | CNc1ncc2cc(-c3cc(NC(=O)NC[C@@H](O)C(C)(C)C)c(F)cc3C)cnc2n1 [Example 19, 1-[2-fluoro-4-methyl-5-(2-methylaminopyrido[2,3-d]pyrimidin-6-yl)phenyl]-3-[(2S)-2-hydroxy-3,3-dimethyl-butyl]urea] |

Continued, molecule first:

| SMILES | IC50 (human B-Raf V600E) | IC50 (human wild type c-KIT) | IC50 (HT-29 cells) | IC50 (HCT-116 cells) |
| --- | --- | --- | --- | --- |
| CNc1ncc2cc(-c3cc(NC(=O)NCCC(C)(C)C)c(F)cc3F)c(C)nc2n1 [Example 1, 1-(2,4-Difluoro-5-(7-methyl-2-(methylamino)pyrido[2,3-d]pyrimidin-6-yl)phenyl)-3-(3,3-dimethylbutyl)urea] | < 150 nM | < 150 nM | < 100 nM | 100 to 1000 nM |
| CNc1ncc2cc(-c3ccc(F)c(NC(=O)NCCC(C)(C)C)c3)c(C)nc2n1 [Example 2, 1-(3,3-Dimethylbutyl)-3-(2-fluoro-5-(7-methyl-2-(methylamino)pyrido[2,3-d]pyrimidin-6-yl)phenyl)urea] | < 150 nM | < 150 nM | < 100 nM | 100 to 1000 nM |
| CNc1ncc2cc(-c3cc(NC(=O)NCCC(C)(C)C#N)c(F)cc3C)c(C)nc2n1 [Example 3, 1-(3-Cyano-3-methylbutyl)-3-(2-fluoro-4-methyl-5-(7-methyl-2-(methylamino)pyrido[2,3-d]pyrimidin-6-yl)phenyl)urea] | < 150 nM | < 150 nM | < 100 nM | 100 to 1000 nM |
| COCCNc1ncc2cc(-c3cc(NC(=O)NCCC(C)(C)C)c(F)cc3C)c(C)nc2n1 [Example 5, 1-(3,3-Dimethylbutyl)-3-(2-fluoro-5-(2-((2-methoxyethyl)amino)-7-methylpyrido[2,3-d]pyrimidin-6-yl)-4-methylphenyl)urea] | < 150 nM | < 150 nM | < 100 nM | 100 to 1000 nM |
| CNc1ncc2cc(-c3cc(NC(=O)NC4CC(C)(C)C4)c(F)cc3C)c(C)nc2n1 [Example 6, 1-(3,3-Dimethylcyclobutyl)-3-(2-fluoro-4-methyl-5-(7-methyl-2-(methylamino)pyrido[2,3-d]pyrimidin-6-yl)phenyl)urea] | < 150 nM | < 150 nM | < 100 nM | 100 to 1000 nM |
| CNc1ncc2cc(-c3cc(NC(=O)NC4CC(C)(C)C4)c(F)cc3F)c(C)nc2n1 [Example 7, 1-(2,4-Difluoro-5-(7-methyl-2-(methylamino)pyrido[2,3-d]pyrimidin-6-yl)phenyl)-3-(3,3-dimethylcyclobutyl)urea] | < 150 nM | < 150 nM | < 100 nM | 100 to 1000 nM |
| CNc1ncc2cc(-c3cc(NC(=O)NCC(O)C(C)(C)C)c(F)cc3C)cnc2n1 (stereo not shown) [Example 8, 1-[2-Fluoro-4-methyl-5-(2-methylaminopyrido[2,3-d]pyrimidin-6-yl)phenyl]-3-(2-hydroxy-3,3-dimethyl-butyl)urea] | < 150 nM | < 150 nM | 100 to 1000 nM | 1000 to 10000 nM |
| CNc1ncc2cc(-c3cc(NC(=O)NCC4CC4(C)C)c(F)cc3C)cnc2n1 (stereo not shown) [Example 9] | < 150 nM | < 150 nM | 100 to 1000 nM | 1000 to 10000 nM |
| Cc1cc(F)c(NC(=O)NCC(O)C(C)(C)C)cc1-c1cc2cnc(N)nc2nc1C (stereo not shown) [Example 10] | < 150 nM | < 150 nM | 100 to 1000 nM | 1000 to 10000 nM |
| CNc1ncc2cc(-c3cc(NC(=O)NCC(O)C(C)(C)C)c(F)cc3F)c(C)nc2n1 (stereo not shown) [Example 11, 1-[2,4-Difluoro-5-(7-methyl-2-methylamino-pyrido[2,3-d]pyrimidin-6-yl)phenyl]-3-(2-hydroxy-3,3-dimethyl-butyl)urea] | < 150 nM | < 150 nM | 100 to 1000 nM | 1000 to 10000 nM |
